Results as given in patent publication US10487093B2, “Heterocyclic compounds, in particular 2-oxo-4,4,5,5,6,6,7,7-octahydrobenzoxazole derivatives, and their use as antibacterial compounds” (priority 2016, dated 2019).
In brackets after ≈: the same amount, converted by molar mass. Read-outs that look alike come from different tables or passages of the source.

Tests used:
[1] = test system: Streptococcus pneumoniae ATCC 49619; experiment: MIC, broth microdilution (CLSI) versus planktonic bacteria; type: cell-based; conditions: Streptococcus pneumoniae ATCC 49619, 16-20 h, mode of three independent experiments; for MIC: ATCC49619, read-out: MIC, Sp ATCC 49619
[2] = test system: Haemophilus influenzae ATCC 49247; experiment: as above; type: cell-based; conditions: Haemophilus influenzae ATCC 49247, 16-20 h, mode of three independent experiments; for MIC: ATCC49247, read-out: MIC, Hi ATCC 49247
[3] = test system: human hepatic cell line (HepG2 ATCC HB-8065); experiment: Human cell viability assay (CellTiter-Glo); conditions: for IC50: Homo sapiens, HepG2, 24 h, read-out: IC50 (μg/mL) HepG2
[4] = test system: Acinetobacter baumannii NCTC 13420; experiment: MIC, broth microdilution (CLSI) versus planktonic bacteria; type: cell-based; conditions: Acinetobacter baumannii NCTC 13420, 16-20 h, mode of three independent experiments; for MIC: NCTC13420, read-out: MIC, Ab NCTC 13420
[5] = test system: E. coli NCTC 13476; experiment: as above; type: cell-based; conditions: Escherichia coli NCTC 13476, 16-20 h, mode of three independent experiments; for MIC: NCTC13476, read-out: MIC, Ec NCTC 13476
[6] = test system: E. coli ATCC BAA-2452; experiment: as above; type: cell-based; conditions: Escherichia coli ATCC BAA-2452, 16-20 h, mode of three independent experiments; for MIC: read-out: MIC, Ec ATCC BAA 2452
[7] = test system: E. coli MG1655 S83L; type: cell-based, Escherichia coli
[8] = test system: Acinetobacter baumannii ATCC 19606; experiment: MIC, broth microdilution (CLSI) versus planktonic bacteria; type: cell-based; conditions: Acinetobacter baumannii ATCC 19606, 16-20 h, mode of three independent experiments; for MIC: ATCC19606, read-out: MIC, Ab ATCC 19606
[9] = test system: E. coli MG1655; experiment: as above; type: cell-based, Escherichia coli; conditions: for MIC: Escherichia coli, MG1655, read-out: MIC, Ec MG1655 WT
[10] = test system: Pseudomonas aeruginosa ATCC 27853; experiment: as above; type: cell-based; conditions: Pseudomonas aeruginosa ATCC 27853, 16-20 h, mode of three independent experiments; for MIC: ATCC27853, read-out: MIC, Pa ATCC 27853
[11] = test system: Escherichia coli ATCC 25922; experiment: as above; type: cell-based; conditions: Escherichia coli ATCC 25922, 16-20 h, mode of three independent experiments; for MIC: ATCC25922, read-out: MIC, Ec ATCC 25922
[12] = test system: Staphylococcus aureus ATCC 29213; experiment: as above; type: cell-based; conditions: Staphylococcus aureus ATCC 29213, 16-20 h, mode of three independent experiments; for MIC: ATCC29213, read-out: MIC, Sa ATCC 29213
[13] = test system: E. coli MG1655 D87G; type: cell-based, Escherichia coli
[14] = test system: Enterobacter cloacae NCTC 13406; experiment: MIC, broth microdilution (CLSI) versus planktonic bacteria; type: cell-based; conditions: Enterobacter cloacae NCTC 13406, 16-20 h, mode of three independent experiments; for MIC: NCTC13406, read-out: MIC, Ecl NCTC 13406
[15] = compared to the isogenic parent strain E. coli MG1655, S83L mutation on DNA gyrase subunit GyrA
[16] = compared to the isogenic parent strain E. coli MG1655, D87G mutation on DNA gyrase subunit GyrA

N#Cc1ccc2ncc(=O)n(CCN[C@@H]3CC[C@@H]4[C@@H](C3)OC(=O)N4c3ccc4c(n3)NC(=O)CO4)c2c1 [Compound 68, 4-(2-{[(3aR,6R,7aR)-2-oxo-3-{3-oxo-2H,3H,4H-pyrido[3,2-b][1,4]oxazin-6-yl}-octahydro-1,3-benzoxazol-6-yl]amino}ethyl)-3-oxo-3,4-dihydroquinoxaline-6-carbonitrile]
MIC [1]: < 1 µg/mL
MIC [2]: < 1 µg/mL
IC50 [3]: 10 to 100 µg/mL (≈ 19.9 to 199 µM)
MIC [4]: < 1 µg/mL
MIC [5]: < 1 µg/mL
MIC [6]: < 1 µg/mL
Fold increase in MIC, E. coli MG1655 S83L [7, 15]: 1 fold
MIC [8]: < 1 µg/mL
MIC [9]: < 1 µg/mL
MIC [10]: 1 to 10 µg/mL (≈ 1.99 to 19.9 µM)
MIC [11]: < 1 µg/mL
MIC [12]: < 1 µg/mL
Fold increase in MIC, E. coli MG1655 D87G [13, 16]: 1 fold
MIC [14]: < 1 µg/mL

O=C1COc2ccc(N3C(=O)O[C@H]4C[C@@H](NCCCn5c(=O)cnc6ccc(F)cc65)CC[C@@H]43)nc2N1 [Compound 92, 1-(3-{[(3aS,6S,7aS)-2-oxo-3-{3-oxo-2H,3H,4H-pyrido[3,2-b][1,4]oxazin-6-yl}-octahydro-1,3-benzoxazol-6-yl]amino}propyl)-7-fluoro-1,2-dihydroquinoxalin-2-one]
MIC [1]: < 1 µg/mL
MIC [2]: < 1 µg/mL
IC50 [3]: > 100 µg/mL
MIC [4]: < 1 µg/mL
MIC [5]: < 1 µg/mL
MIC [6]: < 1 µg/mL
Fold increase in MIC, E. coli MG1655 S83L [7, 15]: 1 fold
MIC [8]: < 1 µg/mL
MIC [9]: < 1 µg/mL
MIC [10]: < 1 µg/mL
MIC [11]: < 1 µg/mL
MIC [12]: < 1 µg/mL
Fold increase in MIC, E. coli MG1655 D87G [13, 16]: 1 fold
MIC [14]: < 1 µg/mL

N#Cc1ccc2ccc(=O)n(CCCN[C@@H]3CC[C@@H]4[C@@H](C3)OC(=O)N4c3ccc4c(n3)NC(=O)CO4)c2c1 [Compound 74, 1-(3-{[(3aR,6R,7aR)-2-oxo-3-{3-oxo-2H,3H,4H-pyrido[3,2-b][1,4]oxazin-6-yl}-octahydro-1,3-benzoxazol-6-yl]amino}propyl)-2-oxo-1,2-dihydroquinoline-7-carbonitrile]
MIC [1]: < 1 µg/mL
MIC [2]: < 1 µg/mL
IC50 [3]: 10 to 100 µg/mL (≈ 19.4 to 194 µM)
MIC [4]: < 1 µg/mL
MIC [5]: < 1 µg/mL
MIC [6]: < 1 µg/mL
Fold increase in MIC, E. coli MG1655 S83L [7, 15]: 1 fold
MIC [8]: < 1 µg/mL
MIC [9]: < 1 µg/mL
MIC [10]: < 1 µg/mL
MIC [11]: < 1 µg/mL
MIC [12]: < 1 µg/mL
Fold increase in MIC, E. coli MG1655 D87G [13, 16]: 1 fold
MIC [14]: < 1 µg/mL

O=C1COc2ccc(N3C(=O)O[C@H]4C[C@@H](NCCCn5c(=O)ccc6ncc(OC(F)F)cc65)CC[C@@H]43)nc2N1 [Compound 93, 1-(3-{[(3aS,6S,7aS)-2-oxo-3-{3-oxo-2H,3H,4H-pyrido[3,2-b][1,4]oxazin-6-yl}-octahydro-1,3-benzoxazol-6-yl]amino}propyl)-7-(difluoromethoxy)-1,2-dihydro-1,5-naphthyridin-2-one]
MIC [1]: < 1 µg/mL
MIC [2]: < 1 µg/mL
IC50 [3]: > 100 µg/mL
MIC [4]: < 1 µg/mL
MIC [5]: < 1 µg/mL
MIC [6]: < 1 µg/mL
Fold increase in MIC, E. coli MG1655 S83L [7, 15]: 1 fold
MIC [8]: < 1 µg/mL
MIC [9]: < 1 µg/mL
MIC [10]: < 1 µg/mL
MIC [11]: < 1 µg/mL
MIC [12]: < 1 µg/mL
Fold increase in MIC, E. coli MG1655 D87G [13, 16]: 1 fold
MIC [14]: 1 to 10 µg/mL (≈ 1.8 to 18 µM)

N#Cc1ccc2ncc(=O)n(CCN[C@H]3CC[C@H]4[C@H](C3)OC(=O)N4c3ccc4c(n3)NC(=O)CO4)c2c1 [Compound 64, 4-(2-{[(3aS,6S,7aS)-2-oxo-3-{3-oxo-2H,3H,4H-pyrido[3,2-b][1,4]oxazin-6-yl}-octahydro-1,3-benzoxazol-6-yl]amino}ethyl)-3-oxo-3,4-dihydroquinoxaline-6-carbonitrile]
MIC [1]: < 1 µg/mL
MIC [2]: < 1 µg/mL
IC50 [3]: 10 to 100 µg/mL (≈ 19.9 to 199 µM)
MIC [4]: < 1 µg/mL
MIC [5]: 1 to 10 µg/mL (≈ 1.99 to 19.9 µM)
MIC [6]: < 1 µg/mL
Fold increase in MIC, E. coli MG1655 S83L [7, 15]: 0.5 fold
MIC [8]: 1 to 10 µg/mL (≈ 1.99 to 19.9 µM)
MIC [9]: < 1 µg/mL
MIC [10]: 1 to 10 µg/mL (≈ 1.99 to 19.9 µM)
MIC [11]: < 1 µg/mL
MIC [12]: < 1 µg/mL
Fold increase in MIC, E. coli MG1655 D87G [13, 16]: 1 fold
MIC [14]: < 1 µg/mL

O=C1COc2ccc(N3C(=O)O[C@@H]4C[C@H](NCCCn5c(=O)cnc6cc(F)c(F)cc65)CC[C@H]43)nc2N1 [Compound 88, 1-(3-{[(3aR,6R,7aR)-2-oxo-3-{3-oxo-2H,3H,4H-pyrido[3,2-b][1,4]oxazin-6-yl}-octahydro-1,3-benzoxazol-6-yl]amino}propyl)-6,7-difluoro-1,2-dihydroquinoxalin-2-one]
MIC [1]: < 1 µg/mL
MIC [2]: < 1 µg/mL
IC50 [3]: 10 to 100 µg/mL (≈ 19 to 190 µM)
MIC [4]: < 1 µg/mL
MIC [5]: < 1 µg/mL
MIC [6]: < 1 µg/mL
Fold increase in MIC, E. coli MG1655 S83L [7, 15]: 2 fold
MIC [8]: < 1 µg/mL
MIC [9]: < 1 µg/mL
MIC [10]: 1 to 10 µg/mL (≈ 1.9 to 19 µM)
MIC [11]: < 1 µg/mL
MIC [12]: < 1 µg/mL
Fold increase in MIC, E. coli MG1655 D87G [13, 16]: 1 fold
MIC [14]: < 1 µg/mL

COc1ccc2ccc(=O)n(CCN[C@@H]3CC[C@@H]4[C@@H](C3)OC(=O)N4c3ncc4c(n3)NC(=O)CO4)c2n1 [Compound 44, 1-(2-{[(3aR,6R,7aR)-2-oxo-3-{7-oxo-6H,7H,8H-pyrimido[5,4-b][1,4]oxazin-2-yl}-octahydro-1,3-benzoxazol-6-yl]amino}ethyl)-7-methoxy-1,2-dihydro-1,8-naphthyridin-2-one]
MIC [1]: < 1 µg/mL
MIC [2]: < 1 µg/mL
IC50 [3]: > 100 µg/mL
MIC [4]: < 1 µg/mL
MIC [5]: 1 to 10 µg/mL (≈ 1.97 to 19.7 µM)
MIC [6]: < 1 µg/mL
Fold increase in MIC, E. coli MG1655 S83L [7, 15]: 2 fold
MIC [8]: < 1 µg/mL
MIC [9]: < 1 µg/mL
MIC [10]: 1 to 10 µg/mL (≈ 1.97 to 19.7 µM)
MIC [11]: < 1 µg/mL
MIC [12]: < 1 µg/mL
Fold increase in MIC, E. coli MG1655 D87G [13, 16]: 2 fold
MIC [14]: < 1 µg/mL

1-[(2S)-3-{[(3aS,6S,7aS)-2-oxo-3-{3-oxo-2H,3H,4H-pyrido[3,2-b][1,4]oxazin-6-yl}-octahydro-1,3-benzoxazol-6-yl]amino}-2-hydroxypropyl]-7-fluoro-1,2-dihydroquinoxalin-2-one & 1-[(2R)-3-{[(3aS,6S,7aS)-2-oxo-3-{3-oxo-2H,3H,4H-pyrido[3,2-b][1,4]oxazin-6-yl}-octahydro-1,3-benzoxazol-6-yl]amino}-2-hydroxypropyl]-7-fluoro-1,2-dihydroquinoxalin-2-one [Compound 95]
MIC, Sp ATCC 49619 [1]: A (an MIC (in μg/mL) of less or equal to 1 is assigned the letter A)
MIC, Hi ATCC 49247 [2]: A (an MIC (in μg/mL) of less or equal to 1 is assigned the letter A)
IC50 (μg/mL) HepG2 ([3]; HepG2 cell viability, 24 h, CellTiter-Glo): A (an IC50 of over 100 is assigned the letter A)
MIC, Ab NCTC 13420 [4]: A (an MIC (in μg/mL) of less or equal to 1 is assigned the letter A)
MIC, Ec NCTC 13476 [5]: A (an MIC (in μg/mL) of less or equal to 1 is assigned the letter A)
MIC, Ec ATCC BAA 2452 [6]: A (an MIC (in μg/mL) of less or equal to 1 is assigned the letter A)
Fold increase in MIC, E. coli MG1655 S83L [7]: 0.5 fold
MIC, Ab ATCC 19606 [8]: B (a MIC of from 1 to 10 is assigned the letter B)
MIC, Ec MG1655 WT ([9]; Escherichia coli MG1655 WT, 16-20 h, mode of three independent experiments): A (an MIC (in μg/mL) of less or equal to 1 is assigned the letter A)
MIC, Pa ATCC 27853 [10]: B (a MIC of from 1 to 10 is assigned the letter B)
MIC, Ec ATCC 25922 [11]: A (an MIC (in μg/mL) of less or equal to 1 is assigned the letter A)
MIC, Sa ATCC 29213 [12]: A (an MIC (in μg/mL) of less or equal to 1 is assigned the letter A)
Fold increase in MIC, E. coli MG1655 D87G [13]: 1 fold
MIC, Ecl NCTC 13406 [14]: B (a MIC of from 1 to 10 is assigned the letter B)
